From PMC4208292 (Bioorganic & medicinal chemistry letters, 2012)
“Also recorded” adds a separate entry of the source.

Assays:
[1] = biological target: GFP-LRRK2[A2016T] (Homo sapiens, UniProt Q5S007, A2016T); assay: Ser910/Ser935 phosphorylation immunoblot in stably transfected HEK293 cells; conditions: 90 min
[2] = biological target: LRRK2 (Mus musculus, UniProt Q5S006); assay: Pharmacodynamic study of LRRK2 Ser910/Ser935 phosphorylation in mouse tissues; type: in vivo; conditions: intraperitoneal 100 mg/kg, normal mice
[3] = biological target: T1, FLT3(D835Y) (Homo sapiens, UniProt P36888, D835Y); assay: Kinase-binding assay; conditions: 10 μM; KINOMEscan profile
T1 sequence (P36888 27-993 D835Y): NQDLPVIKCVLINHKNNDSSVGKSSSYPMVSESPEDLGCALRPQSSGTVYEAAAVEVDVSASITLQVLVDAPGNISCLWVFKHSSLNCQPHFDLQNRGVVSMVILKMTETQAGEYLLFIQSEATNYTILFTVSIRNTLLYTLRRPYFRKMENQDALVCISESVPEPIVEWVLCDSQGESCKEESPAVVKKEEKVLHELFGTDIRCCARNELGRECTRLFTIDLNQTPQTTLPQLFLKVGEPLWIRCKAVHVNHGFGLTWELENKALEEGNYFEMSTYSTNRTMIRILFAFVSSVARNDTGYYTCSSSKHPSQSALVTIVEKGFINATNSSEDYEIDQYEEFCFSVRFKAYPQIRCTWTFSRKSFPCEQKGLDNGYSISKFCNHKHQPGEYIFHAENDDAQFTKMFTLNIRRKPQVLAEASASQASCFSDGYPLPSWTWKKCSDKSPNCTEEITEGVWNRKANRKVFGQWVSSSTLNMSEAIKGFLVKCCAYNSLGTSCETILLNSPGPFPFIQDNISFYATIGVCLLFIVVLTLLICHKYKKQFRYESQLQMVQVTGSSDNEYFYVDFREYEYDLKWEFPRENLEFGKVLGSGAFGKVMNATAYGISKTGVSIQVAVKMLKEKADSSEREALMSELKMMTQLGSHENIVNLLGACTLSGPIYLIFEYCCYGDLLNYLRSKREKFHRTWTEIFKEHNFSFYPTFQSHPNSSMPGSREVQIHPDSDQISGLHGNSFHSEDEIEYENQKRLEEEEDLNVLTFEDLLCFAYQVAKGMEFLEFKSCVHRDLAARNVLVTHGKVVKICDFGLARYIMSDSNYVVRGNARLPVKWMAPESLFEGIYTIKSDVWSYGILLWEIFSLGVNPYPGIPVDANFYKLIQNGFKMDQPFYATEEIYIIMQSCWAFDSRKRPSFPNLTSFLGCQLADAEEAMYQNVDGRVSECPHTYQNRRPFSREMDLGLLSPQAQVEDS

[4] = Pharmacokinetic profile in mice; type: in vivo; conditions: male, Swiss Albino, mouse, brain, iv, 1 mg/kg
[5] = biological target: T2, wild-type LRRK2 (GST-LRRK2(1326–2517)) (Homo sapiens, UniProt Q5S007); assay: LRRK2 enzyme activity assay
T2 sequence (Q5S007 1326-2517): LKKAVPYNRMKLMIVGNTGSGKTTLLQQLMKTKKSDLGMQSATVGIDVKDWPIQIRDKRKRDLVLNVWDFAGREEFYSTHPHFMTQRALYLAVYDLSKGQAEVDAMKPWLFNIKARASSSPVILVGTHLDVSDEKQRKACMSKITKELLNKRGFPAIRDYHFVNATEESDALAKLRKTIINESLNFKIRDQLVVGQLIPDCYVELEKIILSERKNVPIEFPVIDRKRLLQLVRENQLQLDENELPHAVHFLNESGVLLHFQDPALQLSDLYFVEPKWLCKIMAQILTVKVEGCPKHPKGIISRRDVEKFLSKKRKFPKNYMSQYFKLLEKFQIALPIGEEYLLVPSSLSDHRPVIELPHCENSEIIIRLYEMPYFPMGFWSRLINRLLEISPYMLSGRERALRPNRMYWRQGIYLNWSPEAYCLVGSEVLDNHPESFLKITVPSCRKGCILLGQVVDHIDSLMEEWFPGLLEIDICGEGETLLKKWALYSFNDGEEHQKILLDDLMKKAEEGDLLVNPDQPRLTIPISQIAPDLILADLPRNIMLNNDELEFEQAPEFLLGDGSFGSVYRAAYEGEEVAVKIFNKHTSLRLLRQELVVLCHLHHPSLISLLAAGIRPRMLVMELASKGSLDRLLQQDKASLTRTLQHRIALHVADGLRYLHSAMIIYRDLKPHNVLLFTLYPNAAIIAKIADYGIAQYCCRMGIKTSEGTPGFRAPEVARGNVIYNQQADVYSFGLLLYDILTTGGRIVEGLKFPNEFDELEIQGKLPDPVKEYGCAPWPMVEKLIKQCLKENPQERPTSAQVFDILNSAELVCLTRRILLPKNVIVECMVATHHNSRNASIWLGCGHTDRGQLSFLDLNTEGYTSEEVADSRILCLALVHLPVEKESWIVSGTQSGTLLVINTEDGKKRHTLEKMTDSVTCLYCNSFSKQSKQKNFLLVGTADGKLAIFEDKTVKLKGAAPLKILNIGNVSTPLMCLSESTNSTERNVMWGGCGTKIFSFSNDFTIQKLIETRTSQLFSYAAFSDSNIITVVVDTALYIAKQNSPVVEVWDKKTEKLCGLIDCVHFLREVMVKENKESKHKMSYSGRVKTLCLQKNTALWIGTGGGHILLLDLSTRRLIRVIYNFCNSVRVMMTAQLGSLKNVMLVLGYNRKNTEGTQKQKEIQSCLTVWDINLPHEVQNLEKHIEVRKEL

[6] = biological target: ALK (Homo sapiens, UniProt Q9UM73); assay: Kinase-binding assay; conditions: 10 μM; KINOMEscan profile
[7] = biological target: smMLCK (Homo sapiens, UniProt Q15746); assay: Radioactivity-based enzymatic kinase panel; type: biochemical

Sequence of LRRK2 (Q5S006 whole entry): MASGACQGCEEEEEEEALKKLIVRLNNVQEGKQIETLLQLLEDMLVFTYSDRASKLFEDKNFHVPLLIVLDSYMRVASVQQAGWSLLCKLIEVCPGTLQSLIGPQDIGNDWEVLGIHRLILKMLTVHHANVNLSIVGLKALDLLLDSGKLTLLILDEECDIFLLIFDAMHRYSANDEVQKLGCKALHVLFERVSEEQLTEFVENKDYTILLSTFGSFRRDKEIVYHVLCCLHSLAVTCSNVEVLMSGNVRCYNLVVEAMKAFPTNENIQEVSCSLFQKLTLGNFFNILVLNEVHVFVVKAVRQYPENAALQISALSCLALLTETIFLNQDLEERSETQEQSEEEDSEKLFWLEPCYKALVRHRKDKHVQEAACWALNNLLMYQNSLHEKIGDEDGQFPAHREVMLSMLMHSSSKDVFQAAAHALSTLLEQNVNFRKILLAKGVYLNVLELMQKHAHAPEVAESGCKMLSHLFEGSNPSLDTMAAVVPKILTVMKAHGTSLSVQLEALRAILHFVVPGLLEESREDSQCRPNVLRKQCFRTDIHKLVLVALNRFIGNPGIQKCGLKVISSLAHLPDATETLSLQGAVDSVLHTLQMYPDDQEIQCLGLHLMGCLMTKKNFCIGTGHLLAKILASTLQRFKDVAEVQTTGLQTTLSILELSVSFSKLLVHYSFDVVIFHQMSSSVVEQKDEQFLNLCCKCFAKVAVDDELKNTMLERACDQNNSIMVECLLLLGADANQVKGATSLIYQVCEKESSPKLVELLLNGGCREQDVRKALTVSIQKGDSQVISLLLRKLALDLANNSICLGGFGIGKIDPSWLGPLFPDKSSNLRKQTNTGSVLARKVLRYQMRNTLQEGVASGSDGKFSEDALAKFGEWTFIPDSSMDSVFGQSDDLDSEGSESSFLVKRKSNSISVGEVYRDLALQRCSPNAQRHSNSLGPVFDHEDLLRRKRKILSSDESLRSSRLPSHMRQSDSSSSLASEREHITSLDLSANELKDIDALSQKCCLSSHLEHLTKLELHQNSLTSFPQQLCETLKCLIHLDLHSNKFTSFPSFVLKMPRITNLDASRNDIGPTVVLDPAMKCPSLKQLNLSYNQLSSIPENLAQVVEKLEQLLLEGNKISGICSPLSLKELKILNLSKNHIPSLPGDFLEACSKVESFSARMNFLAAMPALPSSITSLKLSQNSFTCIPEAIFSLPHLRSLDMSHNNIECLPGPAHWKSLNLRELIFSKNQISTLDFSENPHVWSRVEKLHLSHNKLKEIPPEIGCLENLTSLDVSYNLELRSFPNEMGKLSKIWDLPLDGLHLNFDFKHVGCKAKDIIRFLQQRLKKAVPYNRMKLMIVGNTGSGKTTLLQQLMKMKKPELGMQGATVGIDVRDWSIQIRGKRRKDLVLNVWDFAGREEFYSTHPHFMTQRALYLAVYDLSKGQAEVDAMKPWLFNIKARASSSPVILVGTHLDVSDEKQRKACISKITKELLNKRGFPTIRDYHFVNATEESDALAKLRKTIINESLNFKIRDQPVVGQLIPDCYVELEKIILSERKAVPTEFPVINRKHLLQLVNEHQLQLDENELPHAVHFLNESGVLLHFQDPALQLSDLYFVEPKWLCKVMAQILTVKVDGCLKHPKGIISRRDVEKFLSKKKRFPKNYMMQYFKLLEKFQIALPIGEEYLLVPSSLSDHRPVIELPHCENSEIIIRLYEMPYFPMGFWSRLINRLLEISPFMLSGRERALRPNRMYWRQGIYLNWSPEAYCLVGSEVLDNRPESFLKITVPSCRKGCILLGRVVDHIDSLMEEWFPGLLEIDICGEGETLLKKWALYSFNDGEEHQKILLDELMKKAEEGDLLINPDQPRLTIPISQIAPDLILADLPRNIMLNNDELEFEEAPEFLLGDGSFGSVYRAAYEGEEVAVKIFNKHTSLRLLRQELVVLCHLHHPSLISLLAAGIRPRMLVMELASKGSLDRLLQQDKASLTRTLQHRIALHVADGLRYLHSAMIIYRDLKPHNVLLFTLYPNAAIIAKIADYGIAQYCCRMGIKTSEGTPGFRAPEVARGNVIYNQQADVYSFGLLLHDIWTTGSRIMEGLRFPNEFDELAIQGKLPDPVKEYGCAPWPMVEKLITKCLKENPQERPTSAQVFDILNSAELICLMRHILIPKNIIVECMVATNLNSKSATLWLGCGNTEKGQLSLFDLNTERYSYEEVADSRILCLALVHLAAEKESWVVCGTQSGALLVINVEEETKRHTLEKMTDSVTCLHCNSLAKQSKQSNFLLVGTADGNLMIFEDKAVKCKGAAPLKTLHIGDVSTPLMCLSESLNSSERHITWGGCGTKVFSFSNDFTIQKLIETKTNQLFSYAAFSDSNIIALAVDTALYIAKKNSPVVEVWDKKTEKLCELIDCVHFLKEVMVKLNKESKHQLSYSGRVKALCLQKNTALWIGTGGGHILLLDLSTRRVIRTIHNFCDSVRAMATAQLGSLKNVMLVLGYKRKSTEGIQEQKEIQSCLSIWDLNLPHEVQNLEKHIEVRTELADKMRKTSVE
Sequence of GFP-LRRK2[A2016T] (Q5S007 whole entry A2016T): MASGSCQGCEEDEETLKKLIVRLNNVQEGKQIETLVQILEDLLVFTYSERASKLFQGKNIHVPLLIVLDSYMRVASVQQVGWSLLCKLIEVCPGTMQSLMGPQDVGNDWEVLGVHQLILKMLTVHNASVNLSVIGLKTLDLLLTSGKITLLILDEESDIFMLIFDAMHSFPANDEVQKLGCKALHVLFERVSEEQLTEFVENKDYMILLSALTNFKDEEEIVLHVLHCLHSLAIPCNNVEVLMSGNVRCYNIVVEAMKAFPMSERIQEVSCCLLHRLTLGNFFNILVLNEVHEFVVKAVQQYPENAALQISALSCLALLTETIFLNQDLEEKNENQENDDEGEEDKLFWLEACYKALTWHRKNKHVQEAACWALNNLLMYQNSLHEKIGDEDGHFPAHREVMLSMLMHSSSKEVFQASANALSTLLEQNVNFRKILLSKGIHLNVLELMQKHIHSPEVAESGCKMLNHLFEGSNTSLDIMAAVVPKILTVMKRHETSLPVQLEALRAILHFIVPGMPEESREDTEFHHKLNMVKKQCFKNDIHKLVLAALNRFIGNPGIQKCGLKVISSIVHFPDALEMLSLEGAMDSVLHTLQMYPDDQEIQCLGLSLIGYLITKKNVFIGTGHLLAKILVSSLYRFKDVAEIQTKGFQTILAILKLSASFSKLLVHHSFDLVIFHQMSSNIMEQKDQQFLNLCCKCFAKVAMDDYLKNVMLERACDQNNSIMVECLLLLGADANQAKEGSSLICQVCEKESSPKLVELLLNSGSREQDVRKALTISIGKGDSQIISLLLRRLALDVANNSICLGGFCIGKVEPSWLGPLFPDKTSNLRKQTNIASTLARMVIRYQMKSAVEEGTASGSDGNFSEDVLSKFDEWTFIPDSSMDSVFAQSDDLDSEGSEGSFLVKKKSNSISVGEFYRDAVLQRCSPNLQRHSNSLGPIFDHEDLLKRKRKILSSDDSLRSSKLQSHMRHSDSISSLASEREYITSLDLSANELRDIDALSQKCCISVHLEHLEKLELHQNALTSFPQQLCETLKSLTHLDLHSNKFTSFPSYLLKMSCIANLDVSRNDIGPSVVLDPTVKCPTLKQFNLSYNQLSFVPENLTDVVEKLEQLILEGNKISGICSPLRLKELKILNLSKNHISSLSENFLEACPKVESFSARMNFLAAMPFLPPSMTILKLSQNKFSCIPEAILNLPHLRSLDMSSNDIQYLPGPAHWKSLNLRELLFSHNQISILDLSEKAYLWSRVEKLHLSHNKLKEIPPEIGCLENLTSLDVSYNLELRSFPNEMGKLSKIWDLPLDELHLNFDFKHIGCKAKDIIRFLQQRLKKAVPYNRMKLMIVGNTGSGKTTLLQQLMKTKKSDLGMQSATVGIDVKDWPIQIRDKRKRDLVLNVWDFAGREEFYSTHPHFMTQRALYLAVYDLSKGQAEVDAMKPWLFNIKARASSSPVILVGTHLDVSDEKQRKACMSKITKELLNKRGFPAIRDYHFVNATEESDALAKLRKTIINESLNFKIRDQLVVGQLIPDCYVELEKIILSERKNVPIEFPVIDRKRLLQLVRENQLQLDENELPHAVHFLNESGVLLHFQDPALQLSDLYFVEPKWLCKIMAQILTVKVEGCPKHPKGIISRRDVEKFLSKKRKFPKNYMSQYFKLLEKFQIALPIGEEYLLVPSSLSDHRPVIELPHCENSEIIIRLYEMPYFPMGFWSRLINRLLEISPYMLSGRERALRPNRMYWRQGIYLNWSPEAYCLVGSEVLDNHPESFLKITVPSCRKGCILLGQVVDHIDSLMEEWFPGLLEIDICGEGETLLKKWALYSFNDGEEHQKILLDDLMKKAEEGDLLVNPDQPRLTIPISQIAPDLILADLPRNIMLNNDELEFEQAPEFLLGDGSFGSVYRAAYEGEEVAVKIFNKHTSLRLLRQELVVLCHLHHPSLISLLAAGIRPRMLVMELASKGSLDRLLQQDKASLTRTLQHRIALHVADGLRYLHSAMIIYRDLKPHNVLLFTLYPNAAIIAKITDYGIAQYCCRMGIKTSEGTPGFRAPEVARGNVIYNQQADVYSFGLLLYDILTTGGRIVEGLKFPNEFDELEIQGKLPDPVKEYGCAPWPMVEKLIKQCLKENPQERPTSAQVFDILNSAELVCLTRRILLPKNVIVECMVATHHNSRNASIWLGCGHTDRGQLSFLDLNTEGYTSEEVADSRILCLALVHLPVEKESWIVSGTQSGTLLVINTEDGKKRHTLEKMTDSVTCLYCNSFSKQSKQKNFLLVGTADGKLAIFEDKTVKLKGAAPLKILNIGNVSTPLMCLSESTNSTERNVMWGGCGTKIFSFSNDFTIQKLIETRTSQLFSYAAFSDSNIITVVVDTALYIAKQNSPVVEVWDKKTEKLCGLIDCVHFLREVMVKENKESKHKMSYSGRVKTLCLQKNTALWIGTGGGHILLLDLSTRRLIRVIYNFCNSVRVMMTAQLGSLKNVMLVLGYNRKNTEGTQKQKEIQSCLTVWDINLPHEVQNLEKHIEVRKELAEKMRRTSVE

## O=C(Nc1cccnc1)c1cc(-c2ccnc(F)c2)ccc1OCc1ccccc1 [GSK2578215A, 2-(benzyloxy)-5-(2-fluoropyridin-4-yl)-N-(pyridin-3-yl)benzamide]
[1]
  concentration inducing dephosphorylation of Ser910 and 935: 1 to 3 µM
[2]; brain
  inhibition of LRRK2 Ser910 or Ser935 phosphorylation in brain: no inhibition; also recorded: failed to induce significant inhibition
[2]; kidney
  Ser910 and Ser935 dephosphorylation of LRRK2 in kidney: complete Ser910 and Ser935 dephosphorylation
[2]; spleen
  Ser910 and Ser935 dephosphorylation of LRRK2 in spleen: complete Ser910 and Ser935 dephosphorylation
[3]
  ambit score: < 10
[4]
  clearance: 22.1 mL/min/kg
[5]
  IC50: ~10 nM
[6]
  ambit score: < 10
[7]
  inhibition at 10 µM: > 50%
